The test system of experiment [1] is L5178Y. The experiment is described as follows: Synergistic cytotoxicity against mouse L5178Y cells transfected with human ABCB1 assessed as combination index measured after 72 hrs in presence doxorubicin by MTT assay based Chou-Talalay method. The class given is functional.
The next experiment relates to COLO 205. The experiment in a line: Cytotoxicity against human COLO 205 cells assessed as reduction in cell viability incubated for 24 hrs by MTT assay. Type of experiment: cell-based. As to conditions: COLO 205, 24 h.
For experiment [2], the system named is L5178Y. The experiment is described as follows: Cytotoxicity against mouse L5178Y cells assessed as reduction in cell viability incubated for 24 hrs by MTT assay. The class given is cell-based.
Experiment [3] deals with L5178Y. The experiment is described as follows: Cytotoxicity against mouse L5178Y cells transfected with human ABCB1 assessed as reduction in cell viability incubated for 24 hrs by MTT assay. Type of experiment: cell-based.
Experiment [4] relates to COLO 320. The experiment in a line: Cytotoxicity against human COLO 320 cells assessed as reduction in cell viability incubated for 24 hrs by MTT assay. The class given is cell-based. As to conditions: COLO 320, 24 h.
Experiment [5] has as its system COLO 320. The experiment in a line: Synergistic cytotoxicity against human resistant COLO 320 cells assessed as combination index measured after 72 hrs in presence doxorubicin by MTT assay based Chou-Talalay method. Type of experiment: functional. As to conditions: dose 2 µM.

In ChEMBL document CHEMBL4732098, “Alkylated monoterpene indole alkaloid derivatives as potent P-glycoprotein inhibitors in resistant cancer cells” (Eur J Med Chem, 2021) one finds CI and IC50 data, which are given here for 28 compounds.

Regarding `CC[C@@H]1CN(C)[C@H]2Cc3c(n(CCc4ccc(Br)cc4)c4ccccc34)C(=O)C[C@H]1C2C(=O)OC` (some centres undefined), the CI in the experiment with L5178Y [1] is <1. Further, the IC50 in the experiment with COLO 205 is > 100 µM; in the experiment with L5178Y [2] it was 71 µM; in the experiment on L5178Y [3] it was 59.3 µM; in the experiment on COLO 320 [4], > 100 µM.
Regarding `CC[C@@H]1CN(C)[C@H]2Cc3c(n(CCCO)c4ccccc34)C(=O)C[C@H]1C2C(=O)OC` (some centres undefined), the IC50 with COLO 205, with L5178Y [2], in the experiment with L5178Y [3] and in the experiment with COLO 320 [4] was > 100 µM throughout.
As for `CC[C@@H]1CN(C)[C@H]2Cc3c(n(Cc4ccc(C)cc4)c4ccccc34)C(=O)C[C@H]1C2C(=O)OC` (some centres undefined), the CI in the experiment with L5178Y [1] and in the experiment with COLO 320 [5] was <1 each time. Also, the IC50 in the experiment on COLO 205 was 11.8 µM; in the experiment with L5178Y [2] it was 31.8 µM; in the experiment with L5178Y [3], 37.1 µM; in the experiment on COLO 320 [4], 53 µM.
`CC[C@@H]1CN(C)[C@H]2Cc3c(n(Cc4ccc(OC)cc4)c4ccccc34)C(=O)C[C@H]1C2C(=O)OC` (some centres undefined): the concentration for half-maximal inhibition (IC50) in the experiment with COLO 205 was determined as 90.6 µM; in the experiment with L5178Y [2], 86 µM; in the experiment on L5178Y [3], 80.1 µM; in the experiment with COLO 320 [4] it was 76.8 µM.
On the same counts, the results for `CC[C@@H]1CN(C)[C@H]2Cc3c(n(Cc4ccc(C(=O)c5ccccc5)cc4)c4ccccc34)C(=O)C[C@H]1C2C(=O)OC` (some centres undefined) are > 100 µM, 89.3 µM, > 100 µM and > 100 µM.
The corresponding values for `CC[C@H]1CN(C)[C@H]2Cc3c([nH]c4ccccc34)C(=O)C[C@H]1C2C(=O)OC` (some centres undefined) are 40.4 µM, 62.5 µM, 91.8 µM and 71.6 µM.
For the compound `CC[C@@H]1CN(C)[C@H]2Cc3c(n(CCc4cccc(Br)c4)c4ccccc34)C(=O)C[C@H]1C2C(=O)OC` (some centres undefined), in the experiment with L5178Y [1], the CI was <1. The half-inhibitory concentration (IC50) is > 100 µM in the experiment on COLO 205, 39.6 µM with L5178Y [2], 85.6 µM in the experiment on L5178Y [3] and 94.8 µM with COLO 320 [4].
On the same counts, the results for `CC[C@@H]1CN(C)[C@H]2Cc3c(n(Cc4cccc([N+](=O)[O-])c4)c4ccccc34)C(=O)C[C@H]1C2C(=O)OC` (some centres undefined) are <1, > 100 µM, 63.1 µM, 58.9 µM and > 100 µM.
For the compound `CC[C@@H]1CN(C)[C@H]2Cc3c(n(Cc4ccc(Br)cc4)c4ccccc34)C(=O)C[C@H]1C2C(=O)OC` (some centres undefined), in the experiment on L5178Y [1], the CI was <1. Moreover, the concentration for half-maximal inhibition (IC50) with COLO 205 was 39.7 µM; in the experiment with L5178Y [2], 36.4 µM; in the experiment on L5178Y [3], 45 µM; with COLO 320 [4], 45.7 µM.
The corresponding values for `CC[C@H]1CN(C)[C@H]2Cc3c(n(Cc4ccc(Cl)cc4)c4ccccc34)C(=O)C[C@H]1C2C(=O)OC` (some centres undefined) are <1, 15.9 µM, 32.4 µM, 24.1 µM and 23.4 µM.
`CC[C@@H]1CN(C)[C@H]2Cc3c([nH]c4ccccc34)C(=O)C[C@H]1C2C(=O)OC` (some centres undefined): the half-maximal inhibitory concentration (IC50) in the experiment on COLO 205 is > 100 µM; in the experiment on L5178Y [2], 55.9 µM; with L5178Y [3] it was 78.8 µM; with COLO 320 [4], > 100 µM.
On to `CC[C@@H]1CN(C)[C@H]2Cc3c(n(Cc4cc(OC)cc(OC)c4)c4ccccc34)C(=O)C[C@H]1C2C(=O)OC` (some centres undefined), for which the CI in the experiment with L5178Y [1] was <1. In addition, the IC50 with COLO 205 was > 100 µM; in the experiment with L5178Y [2], 27.8 µM; with L5178Y [3] it was 39.1 µM; with COLO 320 [4], > 100 µM.
Regarding `CC[C@@H]1CN(C)[C@H]2Cc3c(n(CCc4cccc(OC)c4)c4ccccc34)C(=O)C[C@H]1C2C(=O)OC` (some centres undefined), the CI with L5178Y [1] is <1. For the same compound, the IC50 with COLO 205 was > 100 µM; in the experiment on L5178Y [2], 40.6 µM; in the experiment with L5178Y [3], 78.4 µM; in the experiment on COLO 320 [4], > 100 µM.
Take `CC[C@@H]1CN(C)[C@H]2Cc3c(n(Cc4ccc(Cl)cc4)c4ccccc34)C(=O)C[C@H]1C2C(=O)OC` (some centres undefined): the CI in the experiment on L5178Y [1] is <1. For the same compound, the IC50 stood at 55.5 µM in the experiment on COLO 205, 48.3 µM in the experiment on L5178Y [2], 43.2 µM with L5178Y [3] and 61.3 µM in the experiment on COLO 320 [4].
For `CC[C@@H]1CN(C)[C@H]2Cc3c(n(CC)c4ccccc34)C(=O)C[C@H]1C2C(=O)OC` (some centres undefined), the half-inhibitory concentration (IC50) in the experiment with COLO 205 is > 100 µM; in the experiment on L5178Y [2], 69.4 µM; in the experiment on L5178Y [3], 74.4 µM; with COLO 320 [4] it was > 100 µM.
On to `CCCn1c2c(c3ccccc31)C[C@H]1C(C(=O)OC)[C@H](CC2=O)[C@@H](CC)CN1C` (some centres undefined), for which the CI in the experiment with L5178Y [1] is listed as <1. Moreover, the IC50 came to 25.2 µM with COLO 205, 45.1 µM in the experiment with L5178Y [2], 34.7 µM in the experiment on L5178Y [3] and 40.5 µM in the experiment with COLO 320 [4].
Turning to `CC[C@@H]1CN(C)[C@H]2Cc3c(n(Cc4ccc([N+](=O)[O-])cc4)c4ccccc34)C(=O)C[C@H]1C2C(=O)OC` (some centres undefined), the IC50 in the experiment with COLO 205 was > 100 µM; in the experiment with L5178Y [2] it was 63.3 µM; in the experiment on L5178Y [3], 81 µM; with COLO 320 [4] it was 86.2 µM.
For `CC[C@@H]1CN(C)[C@H]2Cc3c(n(Cc4cccc(C)c4)c4ccccc34)C(=O)C[C@H]1C2C(=O)OC` (some centres undefined), the CI with L5178Y [1] is <1. The IC50 worked out at 93.6 µM in the experiment with COLO 205, 41.9 µM with L5178Y [2], 52.8 µM with L5178Y [3] and 82.2 µM with COLO 320 [4].
The corresponding values for `CC[C@@H]1CN(C)[C@H]2Cc3c(n(Cc4ccccc4C)c4ccccc34)C(=O)C[C@H]1C2C(=O)OC` (some centres undefined) are <1, > 100 µM, 42.2 µM, 61 µM and 97.5 µM.
The corresponding values for `CC[C@H]1CN(C)[C@H]2Cc3c(n(CC)c4ccccc34)C(=O)C[C@H]1C2C(=O)OC` (some centres undefined) are <1, > 100 µM, 66.3 µM, 48.4 µM and > 100 µM.
Regarding `C=CCn1c2c(c3ccccc31)C[C@H]1C(C(=O)OC)[C@H](CC2=O)[C@H](CC)CN1C` (some centres undefined), the IC50 is > 100 µM with COLO 205, 64.2 µM with L5178Y [2], 96.6 µM in the experiment with L5178Y [3] and > 100 µM with COLO 320 [4].
Consider `CC[C@@H]1CN(C)[C@H]2Cc3c(n(Cc4cccc(Cl)c4)c4ccccc34)C(=O)C[C@H]1C2C(=O)OC` (some centres undefined), for which the CI in the experiment on L5178Y [1] is given as <1. Also, the IC50 in the experiment on COLO 205 is > 100 µM; in the experiment with L5178Y [2], 38.4 µM; in the experiment with L5178Y [3], 38.1 µM; in the experiment on COLO 320 [4], 74.7 µM.
On the same counts, the results for `CC[C@@H]1CN(C)[C@H]2Cc3c(n(Cc4cccc(OC)c4)c4ccccc34)C(=O)C[C@H]1C2C(=O)OC` (some centres undefined) are <1, 88.4 µM, 42.1 µM, 36.7 µM and 84.4 µM.
As for `CC[C@@H]1CN(C)[C@H]2Cc3c(n(Cc4ccccn4)c4ccccc34)C(=O)C[C@H]1C2C(=O)OC` (some centres undefined), the IC50 in the experiment on COLO 205 is > 100 µM; in the experiment with L5178Y [2], 97.6 µM; in the experiment with L5178Y [3], > 100 µM; with COLO 320 [4], > 100 µM.
As to `CC[C@H]1CN(C)[C@H]2Cc3c(n(Cc4ccc(Br)cc4)c4ccccc34)C(=O)C[C@H]1C2C(=O)OC` (some centres undefined), the CI with L5178Y [1] is <1. Further, the IC50 in the experiment with COLO 205 came out at 28.4 µM; with L5178Y [2], 34.7 µM; with L5178Y [3], 38.5 µM; in the experiment with COLO 320 [4] it was 24.8 µM.
The corresponding values for `CCCn1c2c(c3ccccc31)C[C@H]1C(C(=O)OC)[C@H](CC2=O)[C@H](CC)CN1C` (some centres undefined) are <1, > 100 µM, 35.1 µM, 48.5 µM and > 100 µM.
Consider `CC[C@H]1CN(C)[C@H]2Cc3c(n(Cc4ccc(OC)cc4)c4ccccc34)C(=O)C[C@H]1C2C(=O)OC` (some centres undefined), for which the CI in the experiment on L5178Y [1] and with COLO 320 [5] was <1 in each case. Moreover, the half-maximal inhibitory concentration (IC50) with COLO 205 worked out at 58.9 µM; in the experiment on L5178Y [2], 50.7 µM; in the experiment on L5178Y [3] it was 35.6 µM; in the experiment with COLO 320 [4] it was 60.3 µM.
Regarding `CC[C@@H]1CN(C)[C@H]2Cc3c(n(CCc4ccc(OC)cc4)c4ccccc34)C(=O)C[C@H]1C2C(=O)OC` (some centres undefined), the CI with L5178Y [1] and in the experiment with COLO 320 [5] was <1 each time. Also, the IC50 with COLO 205 stood at 80 µM; in the experiment with L5178Y [2], 25.5 µM; with L5178Y [3], 37.2 µM; with COLO 320 [4], 49 µM.
